Experimental data from PubChem BioAssay AID2060887 (Molecular Pharmacology Branch, DTP, NCI, 2025).
Where “and” joins values, the source holds several entries; their conditions need not be identical. Equal values may be shown once.

Test system: 782815-120-R-J1-PDC complex spheroid viability
Test: Anticancer human tumor 782815-120-R-J1-PDC patient-derived colon adenocarcinoma cell line growth inhibition [RAS]
Conditions: for viability, T/C: stronger effect = lower value
Excerpt: RAS pathway inhibitors in Combinations in Complex Spheroids
A high-throughput screen of multi-cell type tumor spheroids was designed to identify active combinations of RAS pathway inhibitors and targeted small molecules. Complex spheroids include a stromal component modeled by human endothelial cells (HUVEC) and fibroblasts modeled by human mesenchymal stem cells (MSCs). The concentration ranges selected for each drug and investigational agent were based upon clinically achievable concentrations if the clinical Cmax of the agent was known.
Compounds. The drugs and investigational agents: abemaciclib (NSC768073), cobimetinib (NSC768068), divarasib (GDC6063, NSC841802), docetaxel (NSC628503), GDC-1971 (RLY-1971, NSC841576), gemcitabine (NSC613327), inavolisib (NSC800729), ipatasertib (NSC767898), KB-0742 (NSC834161), MRTX-1133 (NSC836407), osimertinib (NSC779217), RMC-4630 (NSC839698), RMC-6236 (NSC851965), RMC-6291 (NSC852671), Ro-3306 (NSC812927), sapanisertib (NSC764658), SN-38 (NSC673596), staurosporine (NSC755774), SY5609 (NSC837396), and tovorafenib (DAY101, NSC766906), were obtained from the National Cancer Institute (NCI) Developmental Therapeutics Program Chemical Repository. The FDA-approved anticancer drug set is available from the NCI Developmental Therapeutics Program. […] The stock solutions were prepared in dimethyl sulfoxide (DMSO, Sigma-Aldrich, St. Louis, MO, cat. D2650) at 800-fold the tested concentration and stored at -70 degrees C prior to their use. All drugs and investigational agents were tested over a range starting from a high concentration at or near the clinical Cmax and decreasing in half-log increments. If the clinical Cmax for an agent had not been determined, the highest concentration tested was 10 microM.
Cell Culture. All cells were maintained in an incubator at 37 degrees C and 5% CO2 with 95% humidity. The PDC lines were cultured according to standard operating procedures established by the NCI PDMR. All PDCs were thawed and cultured in Matrigel-coated flasks prepared with a working solution of 1X Ham's F-12 nutrient mix, without supplementation (Invitrogen, Waltham, MA, cat. 11765054), 100 U/mL penicillin-streptomycin (Invitrogen, cat. 15140122), and 2.5% Matrigel (Corning Inc., Corning, NY, cat. 354248) for the first three passages. The 362531-283-R-J2-PDC and 782815-120-R-J1-PDC lines were cultured in 6C/Colon 1B media, which includes advanced DMEM/F-12 (Thermo Fisher Scientific, cat. 12634028), 10 mM HEPES (Thermo Fisher Scientific, cat. 15630080), 1X GlutaMAX supplement (Thermo Fisher Scientific, cat. 35050061), 0.1 mg/mL primocin (InvivoGen, San Diego, CA, cat. ant-pm-2), 10% defined fetal bovine serum, heat inactivated (HyClone Laboratories Inc., Logan, UT, cat. SH30070.03HI), 50% L-WRN conditioned media (ATCC, cat. CRL-3276), 1.25 mM N-Acetyl-L-cysteine (Sigma-Aldrich, cat. A9165), 10 mM nicotinamide (Sigma-Aldrich, cat. N0636), 1X B-27 supplement (Thermo Fisher Scientific, cat. 17504044), 1X N-2 supplement (Thermo Fisher Scientific, cat. 17502048), 50 ng/mL human EGF (Thermo Fisher Scientific, cat. PHG0311), and 10 microM Y-27632 dihydrochloride (Tocris Bioscience, cat. 1254). The K12877-001-R-J1-PDC line was cultured in 6I media, which includes all 6C/Colon 1B media plus 10 ng/mL human FGF-10 (PeproTech, cat. 100-26), 1 ng/mL human FGF-2 (PeproTech, cat. 100-18B), 1 µM prostaglandin E2 (Tocris Bioscience, cat. 2296), […] hydrocortisone (Sigma-Aldrich, cat. H4001), and […] bovine insulin (Sigma-Aldrich, cat. I6634). The K86415-001-R-J1-PDC line was cultured in 6D media, which includes all 6C/Colon 1B media components minus the L-WRN conditioned media. The 485176-168-R4-J1-PDC was cultured in PANC media, which includes all 6C/Colon 1B media plus 100 ng/mL human FGF-10 (PeproTech, cat. 100-26), 500 nM SB-431542 (Selleckchem, cat. S1067), and 10 nM gastrin (Tocris Bioscience, cat. 3006). […]

[1] = compound alone, run of 07/15/2024
[2] = compound alone, run of 07/09/2024
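Further: spheroids exposed to compounds for 7 days before reading.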
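Wherever viability, T/C is given: 100% = DMSO vehicle control viability.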

SMILES	viability, T/C (compound 0.0316 µM)	viability, T/C (compound 0.1 µM)	viability, T/C (compound 0.316 µM)	viability, T/C (compound 1 µM)	viability, T/C (compound 3.16 µM)	viability, T/C (compound 10 µM)	IC50 [1]	viability, T/C (compound 0.00316 µM)	viability, T/C (compound 0.01 µM)	IC50 (curve of compound)	viability, T/C (compound 0.000316 µM)	viability, T/C (compound 0.001 µM)	viability, T/C (compound 0.000949 µM)	viability, T/C (compound 0.003 µM)	viability, T/C (compound 0.03 µM)	viability, T/C (compound 0.0949 µM)	viability, T/C (compound 0.3 µM)	viability, T/C (compound 0.00949 µM)	IC50 [2]
C#Cc1c(F)ccc2cc(O)cc(-c3ncc4c(N5CC6CCC(C5)N6)nc(OCC56CCCN5CC(F)C6)nc4c3F)c12 (stereo not given)	104% [middle of 8 runs]	103% [middle of 8 runs]	103% [middle of 8 runs]	97.9% [middle of 8 runs]	101% [middle of 8 runs]	95% [middle of 8 runs]	> 10000 nM	–	–	–	–	–	–	–	–	–	–	–	–
C=CC(=O)N1CCN(c2nc(OCC3CCCN3C)nc3c(F)c(-c4nc(N)cc(C)c4C(F)(F)F)c(Cl)cc23)C(C)C1 (stereo not given)	102% [middle of 12 runs]	99.2% [middle of 12 runs]	102% [middle of 12 runs]	96.7% [middle of 12 runs]	–	–	> 1000 nM	99.4% [middle of 12 runs]	102% [middle of 12 runs]	> 1000 nM	–	–	–	–	–	–	–	–	–
C=CC(=O)Nc1cc(Nc2nccc(-c3cn(C)c4ccccc34)n2)c(OC)cc1N(C)CCN(C)C	96.3% [middle of 4 runs]	94.3% [middle of 4 runs]	94.1% [middle of 4 runs]	91.1% [middle of 4 runs]	–	–	–	93.8% and 93.6% (2×) and 98%	99.9% [middle of 4 runs]	> 1000 nM	–	–	–	–	–	–	–	–	–
CC(C)NCC(C(=O)N1CCN(c2ncnc3c2C(C)CC3O)CC1)c1ccc(Cl)cc1 (stereo not given)	106% [middle of 4 runs]	98.9% [middle of 4 runs]	104% (2×) and 101% and 91.7%	96% [middle of 4 runs]	101% [middle of 4 runs]	104% [middle of 4 runs]	–	–	–	> 10000 nM	–	–	–	–	–	–	–	–	–
CC(C)n1nc(-c2ccc3oc(N)nc3c2)c2c(N)ncnc21	95.5% [middle of 4 runs]	83.7% [middle of 4 runs]	–	–	–	–	–	93.8% [middle of 4 runs]	90.3% [middle of 4 runs]	> 100 nM	98.8% [middle of 4 runs]	97.7% [middle of 4 runs]	–	–	–	–	–	–	–
CC(Nc1ccc2c(c1)OCCn1cc(N3C(=O)OCC3C(F)F)nc1-2)C(N)=O (stereo not given)	102% (2×) and 103% and 93.2%	97.5% [middle of 4 runs]	90.9% [middle of 4 runs]	87.2% [middle of 4 runs]	100% [middle of 4 runs]	93% [middle of 4 runs]	–	–	–	> 10000 nM	–	–	–	–	–	–	–	–	–
CC1(C)CCC(Nc2ncc(C(F)(F)F)c(-c3c[nH]c4c(P(C)(C)=O)c(C#N)ccc34)n2)CN1 (stereo not given)	–	–	–	–	–	–	–	–	–	> 300 nM and 76.6 nM and 223 nM	–	–	107% [middle of 4 runs]	85% [middle of 4 runs]	65.3% [middle of 4 runs]	59.4% [middle of 4 runs]	57.8% [middle of 4 runs]	–	–
CC1(O)CCCC1n1c(=O)c(C(F)F)cc2cnc(NC3CCN(S(C)(=O)=O)CC3)nc21 (stereo not given)	70.6% [middle of 4 runs]	66.3% [middle of 4 runs]	64.3% [middle of 4 runs]	70% [middle of 4 runs]	63.5% [middle of 4 runs]	27% [middle of 4 runs]	–	–	–	4.69 µM [middle of 4 runs]	–	–	–	–	–	–	–	–	–
CCC(CC)c1cc(NC2CCC(N)C2)n2nccc2n1 (stereo not given)	103% [middle of 4 runs]	93.2% [middle of 4 runs]	103% [middle of 4 runs]	99.6% [middle of 4 runs]	34.1% [middle of 4 runs]	1.98% [middle of 4 runs]	–	–	–	2.34 µM [middle of 4 runs]	–	–	–	–	–	–	–	–	–
CCN1CCN(Cc2ccc(Nc3ncc(F)c(-c4cc(F)c5nc(C)n(C(C)C)c5c4)n3)nc2)CC1	93.5% and 96.4% and 101% (2×)	100% [middle of 4 runs]	113% [middle of 4 runs]	125% [middle of 4 runs]	–	–	–	102% [middle of 4 runs]	99.6% [middle of 4 runs]	> 1000 nM	–	–	–	–	–	–	–	–	–
CCc1c2c(nc3ccc(O)cc13)-c1cc3c(c(=O)n1C2)COC(=O)[C@]3(O)CC	–	–	–	–	–	–	–	–	–	4.02 nM [middle of 4 runs]	–	–	100% [middle of 4 runs]	59.1% [middle of 4 runs]	9.92% [middle of 4 runs]	3.66% [middle of 4 runs]	1.71% [middle of 4 runs]	20.2% [middle of 4 runs]	–
CCn1c(-c2cc(N3CCN(C)CC3)cnc2C(C)OC)c2c3cc(ccc31)-c1csc(n1)CC(NC(=O)C1CC1C)C(=O)N1CCCC(N1)C(=O)OCC(C)(C)C2 (stereo not given)	–	–	–	–	–	–	–	–	–	–	–	–	84.7% [middle of 8 runs]	60.1% [middle of 8 runs]	20.7% [middle of 8 runs]	16.4% [middle of 8 runs]	14.7% [middle of 7 runs]	35.1% [middle of 8 runs]	4.66 nM [middle of 8 runs]
CCn1c(-c2cccnc2C(C)OC)c2c3cc(ccc31)N1CCOC(CC(NC(=O)C(C(C)C)N(C)C(=O)C3(F)CCN(C(=O)C#CC(C)(C)N(C)C)CC3)C(=O)N3CCCC(N3)C(=O)OCC(C)(C)C2)C1 (stereo not given)	–	–	–	–	–	–	–	–	–	–	–	–	95.4% [middle of 8 runs]	100% [middle of 8 runs]	98.5% [middle of 8 runs]	96.5% [middle of 8 runs]	89.1% [middle of 8 runs]	95.8% [middle of 8 runs]	> 300 nM
C[C@@H](NC(=O)c1ncnc(N)c1Cl)c1ncc(C(=O)Nc2cc(C(F)(F)F)c(Cl)cn2)s1	105% [middle of 4 runs]	99.3% [middle of 4 runs]	98.1% [middle of 4 runs]	–	83% [middle of 4 runs]	62.2% [middle of 4 runs]	–	–	–	> 10000 nM	–	–	–	–	–	–	–	–	–
Nc1ccn(C2OC(CO)C(O)C2(F)F)c(=O)n1 (stereo not given)	–	40.8% [middle of 4 runs]	27% [middle of 4 runs]	25.6% [middle of 4 runs]	–	–	–	91.4% [middle of 4 runs]	71.8% [middle of 4 runs]	60.1 nM [middle of 4 runs]	–	–	–	–	–	–	–	–	–
O=C(c1ccc(F)c(F)c1Nc1ccc(I)cc1F)N1CC(O)([C@@H]2CCCCN2)C1	66.7% [middle of 4 runs]	38.3% [middle of 4 runs]	19.9% [middle of 4 runs]	3.13% [middle of 4 runs]	–	–	–	91.5% [middle of 4 runs]	82.9% [middle of 4 runs]	66 nM [middle of 4 runs]	–	–	–	–	–	–	–	–	–
